Data taken from the supplement of paper PMC10627819.

How the values were obtained:
S. aureus DSM 20231 [1] = assay: Bliss interaction score (quartile over a dose matrix) (fitness difference); higher = more antagonism (negative = synergy)
Procedure, shortened: (§1)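 The Bliss score is observed fitness minus expected fitness, where the expected value is the product of single-drug fitness values inferred from combination data. Fitness is OD595 at entry into stationary phase normalised to the plate's robust no-drug mean and capped at 1. Scores are reported as quartiles spanning technical, biological and donor/recipient replicates.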

S. pneumoniae D39V [2] = assay: as above
Procedure, shortened: as §1

S. aureus Newman [3] = assay: as above
Procedure, shortened: as §1

B. subtilis 168 [4] = assay: as above
Procedure, shortened: as §1

S. aureus DSM 20231 [5] = assay: fitness (endpoint OD595 vs no drug) (fraction); higher = more growth
Procedure, shortened: (§2)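 Background-subtracted growth curves were the basis for fitness, taken as the optical density at entry into stationary phase over the robust mean of no-drug control wells. A cap of 1 was applied. The curves came from OD595 readings every 30 min for 14 h at 37 °C, in 384-well plates seeded at OD595 0.01 with 30 µl, or 55 µl for S. pneumoniae.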

S. pneumoniae D39V [6] = assay: as above
Procedure, shortened: as §2

S. aureus Newman [7] = assay: as above
Procedure, shortened: as §2

B. subtilis 168 [8] = assay: as above
Procedure, shortened: as §2
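Throughout, for Bliss interaction score (quartile over a dose matrix): first quartile when negative (synergy) and third quartile when positive (antagonism).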

Cc1onc(-c2ccccc2)c1C(=O)N[C@@H]1C(=O)N2[C@@H]1SC(C)(C)[C@@H]2C(=O)O [Oxacillin] + CN1C2=CC=CC=C2N=C3C1=CC=CC3=O [Pyocyanin]
Details	Bliss interaction score
B. subtilis 168 [4]	-0.0582
S. aureus DSM 20231 [1]	-0.0528
S. aureus Newman [3]	-0.0412
S. pneumoniae D39V [2]	0.188

Details	fitness
B. subtilis 168 [8], first compound 0.002 µg/mL, partner 1.25 µg/mL	0.93
B. subtilis 168 [8], first compound 0.002 µg/mL, partner 2.5 µg/mL	0.891
B. subtilis 168 [8], first compound 0.002 µg/mL, partner 5 µg/mL	0.768
B. subtilis 168 [8], first compound 0.004 µg/mL, partner 1.25 µg/mL	0.918
B. subtilis 168 [8], first compound 0.004 µg/mL, partner 2.5 µg/mL	0.839
B. subtilis 168 [8], first compound 0.004 µg/mL, partner 5 µg/mL	0.703
B. subtilis 168 [8], first compound 0.008 µg/mL, partner 1.25 µg/mL	0.847
B. subtilis 168 [8], first compound 0.008 µg/mL, partner 2.5 µg/mL	0.79
B. subtilis 168 [8], first compound 0.008 µg/mL, partner 5 µg/mL	0.675
S. aureus DSM 20231 [5], first compound 0.0156 µg/mL, partner 1.25 µg/mL	0.761
S. aureus DSM 20231 [5], first compound 0.0156 µg/mL, partner 2.5 µg/mL	0.766
S. aureus DSM 20231 [5], first compound 0.0156 µg/mL, partner 5 µg/mL	0.493
S. aureus DSM 20231 [5], first compound 0.0312 µg/mL, partner 1.25 µg/mL	0.643
S. aureus DSM 20231 [5], first compound 0.0312 µg/mL, partner 2.5 µg/mL	0.635
S. aureus DSM 20231 [5], first compound 0.0312 µg/mL, partner 5 µg/mL	0.468
S. aureus DSM 20231 [5], first compound 0.0625 µg/mL, partner 1.25 µg/mL	0.48
S. aureus DSM 20231 [5], first compound 0.0625 µg/mL, partner 2.5 µg/mL	0.482
S. aureus DSM 20231 [5], first compound 0.0625 µg/mL, partner 5 µg/mL	0.362
S. aureus Newman [7], first compound 0.0156 µg/mL, partner 1.25 µg/mL	0.744
S. aureus Newman [7], first compound 0.0156 µg/mL, partner 2.5 µg/mL	0.683
S. aureus Newman [7], first compound 0.0156 µg/mL, partner 5 µg/mL	0.424
S. aureus Newman [7], first compound 0.0312 µg/mL, partner 1.25 µg/mL	0.625
S. aureus Newman [7], first compound 0.0312 µg/mL, partner 2.5 µg/mL	0.596
S. aureus Newman [7], first compound 0.0312 µg/mL, partner 5 µg/mL	0.336
S. aureus Newman [7], first compound 0.0625 µg/mL, partner 5 µg/mL	0.305
S. pneumoniae D39V [6], first compound 0.01 µg/mL, partner 0.325 µg/mL	≥ 1
S. pneumoniae D39V [6], first compound 0.01 µg/mL, partner 0.65 µg/mL	≥ 1
S. pneumoniae D39V [6], first compound 0.01 µg/mL, partner 1.3 µg/mL	0.684
S. pneumoniae D39V [6], first compound 0.02 µg/mL, partner 0.325 µg/mL	0.988
S. pneumoniae D39V [6], first compound 0.02 µg/mL, partner 0.65 µg/mL	0.979
S. pneumoniae D39V [6], first compound 0.02 µg/mL, partner 1.3 µg/mL	0.672
S. pneumoniae D39V [6], first compound 0.04 µg/mL, partner 0.325 µg/mL	0.722
S. pneumoniae D39V [6], first compound 0.04 µg/mL, partner 0.65 µg/mL	0.781
S. pneumoniae D39V [6], first compound 0.04 µg/mL, partner 1.3 µg/mL	0.547

fitness, B. subtilis 168 [8], one replicate
Details	first compound 0.075 µg/mL	first compound 0.15 µg/mL	first compound 0.3 µg/mL
partner 1.25 µg/mL	0.463	0.0474	0.0657
partner 2.5 µg/mL	0.404	0.0413	0.0539
partner 5 µg/mL	0.145	0.0518	0.0652

C[n+]1ccc(-c2cc[n+](C)cc2)cc1 [Paraquat] + CC1=C\[C@@H](O)CC(=O)Cc2nc(co2)C(=O)N2CCC=C2C(=O)O[C@H](C(C)C)[C@H](C)/C=C/C(=O)NC\C=C\1 [Virginiamycin M1]
Details	Bliss interaction score
B. subtilis 168 [4]	0.0473
S. aureus DSM 20231 [1]	0.0744
S. aureus Newman [3]	0.0334
S. pneumoniae D39V [2]	-0.0275

fitness
Details	first compound 1.25 µg/mL	first compound 1.5 µg/mL	first compound 2.5 µg/mL	first compound 3 µg/mL	first compound 5 µg/mL	first compound 6 µg/mL
B. subtilis 168 [8], partner 0.0625 µg/mL	0.951	–	0.934	–	0.819	–
B. subtilis 168 [8], partner 0.125 µg/mL	0.918	–	0.934	–	0.856	–
B. subtilis 168 [8], partner 0.25 µg/mL	0.93	–	0.95	–	0.893	–
S. aureus DSM 20231 [5], partner 0.0625 µg/mL	0.912	–	0.897	–	0.872	–
S. aureus DSM 20231 [5], partner 0.125 µg/mL	0.967	–	0.981	–	0.936	–
S. aureus DSM 20231 [5], partner 0.25 µg/mL	0.935	–	0.882	–	0.934	–
S. pneumoniae D39V [6], partner 0.5 µg/mL	–	0.987	–	0.988	–	0.991
S. pneumoniae D39V [6], partner 1 µg/mL	–	0.991	–	0.978	–	0.967
S. pneumoniae D39V [6], partner 2 µg/mL	–	0.937	–	0.93	–	0.897

fitness, one replicate
Details	first compound 1.25 µg/mL	first compound 1.5 µg/mL	first compound 2.5 µg/mL	first compound 3 µg/mL	first compound 5 µg/mL	first compound 6 µg/mL
S. aureus DSM 20231 [5], partner 0.5 µg/mL	0.831	–	0.901	–	0.858	–
S. aureus DSM 20231 [5], partner 1 µg/mL	0.781	–	0.848	–	0.898	–
S. aureus Newman [7], partner 0.0625 µg/mL	0.883	–	0.93	–	0.863	–
S. aureus Newman [7], partner 0.125 µg/mL	0.885	–	0.934	–	0.894	–
S. aureus Newman [7], partner 0.25 µg/mL	0.868	–	0.9	–	0.929	–
S. aureus Newman [7], partner 0.5 µg/mL	0.862	–	0.852	–	0.908	–
S. aureus Newman [7], partner 1 µg/mL	0.949	–	0.959	–	0.971	–
S. aureus Newman [7], partner 2 µg/mL	0.862	–	0.848	–	0.855	–
S. pneumoniae D39V [6], partner 0.15 µg/mL	–	≥ 1	–	≥ 1	–	0.975
S. pneumoniae D39V [6], partner 0.3 µg/mL	–	≥ 1	–	≥ 1	–	0.948

Cc1onc(-c2ccccc2)c1C(=O)N[C@@H]1C(=O)N2[C@@H]1SC(C)(C)[C@@H]2C(=O)O [Oxacillin] + Cc1cc(NS(=O)(=O)c2ccc(N)cc2)no1 [Sulfamethoxazol]
Details	Bliss interaction score
B. subtilis 168 [4]	0.0542
S. aureus DSM 20231 [1]	-0.0464
S. aureus Newman [3]	-0.0519
S. pneumoniae D39V [2]	0.0796

fitness
Details	partner 1 µg/mL	partner 2 µg/mL	partner 4 µg/mL
B. subtilis 168 [8], first compound 0.002 µg/mL	0.996	0.968	≥ 1
B. subtilis 168 [8], first compound 0.004 µg/mL	0.988	0.947	0.984
B. subtilis 168 [8], first compound 0.008 µg/mL	0.93	0.929	0.915
S. aureus DSM 20231 [5], first compound 0.0156 µg/mL	0.795	0.865	0.866
S. aureus DSM 20231 [5], first compound 0.0312 µg/mL	0.636	0.65	0.719
S. aureus DSM 20231 [5], first compound 0.0625 µg/mL	0.469	0.462	0.485
S. aureus Newman [7], first compound 0.0156 µg/mL	0.748	0.686	–
S. aureus Newman [7], first compound 0.0312 µg/mL	0.758	0.688	–
S. aureus Newman [7], first compound 0.0625 µg/mL	0.63	0.624	0.556
S. pneumoniae D39V [6], first compound 0.01 µg/mL	0.954	0.961	0.966
S. pneumoniae D39V [6], first compound 0.02 µg/mL	0.888	0.904	0.915
S. pneumoniae D39V [6], first compound 0.04 µg/mL	0.273	0.32	0.395

one replicate
Details	fitness
B. subtilis 168 [8], first compound 0.0078 µg/mL, partner 0.5 µg/mL	0.943
B. subtilis 168 [8], first compound 0.0078 µg/mL, partner 1 µg/mL	0.864
B. subtilis 168 [8], first compound 0.0078 µg/mL, partner 2 µg/mL	0.896
B. subtilis 168 [8], first compound 0.0155 µg/mL, partner 0.5 µg/mL	0.997
B. subtilis 168 [8], first compound 0.0155 µg/mL, partner 1 µg/mL	0.755
B. subtilis 168 [8], first compound 0.0155 µg/mL, partner 2 µg/mL	0.877
B. subtilis 168 [8], first compound 0.031 µg/mL, partner 0.5 µg/mL	0.921
B. subtilis 168 [8], first compound 0.031 µg/mL, partner 1 µg/mL	0.9
B. subtilis 168 [8], first compound 0.031 µg/mL, partner 2 µg/mL	0.866
B. subtilis 168 [8], first compound 0.075 µg/mL, partner 1 µg/mL	0.49
B. subtilis 168 [8], first compound 0.075 µg/mL, partner 2 µg/mL	0.454
B. subtilis 168 [8], first compound 0.075 µg/mL, partner 4 µg/mL	0.529
B. subtilis 168 [8], first compound 0.15 µg/mL, partner 1 µg/mL	0.0391
B. subtilis 168 [8], first compound 0.15 µg/mL, partner 2 µg/mL	0.0283
B. subtilis 168 [8], first compound 0.15 µg/mL, partner 4 µg/mL	0.0224
B. subtilis 168 [8], first compound 0.3 µg/mL, partner 1 µg/mL	0.0079
B. subtilis 168 [8], first compound 0.3 µg/mL, partner 2 µg/mL	0.0431
B. subtilis 168 [8], first compound 0.3 µg/mL, partner 4 µg/mL	0.0098
S. aureus Newman [7], first compound 0.0156 µg/mL, partner 8 µg/mL	0.9
S. aureus Newman [7], first compound 0.0312 µg/mL, partner 8 µg/mL	0.845
S. aureus Newman [7], first compound 0.0625 µg/mL, partner 8 µg/mL	0.783
